Measurements reported in US20170304281A1, “METHODS OF USING POTASSIUM CHANNEL INHIBITORS (BLOCKERS) FOR FLUID RESUSCITATION” (Loyola University of Chicago, priority 2016, published 2017).
Where two headings read alike, the source gives them in different places.

Experiments:
[1] = tested on: rats hemorrhaged to induce hemorrhagic shock; assay: Fluid resuscitation after hemorrhagic shock, intravenous bolus injection at end of shock period; assay type: in vivo, rat; details: for fluid requirements to resuscitate to a MAP of 70 mmHg: mean±SD
Experimental: Further phases of the investigation entailed the use of anesthetized male Sprague-Dawley rats that were hemorrhaged to a mean arterial blood pressure (MAP) of 25 mmHg for thirty minutes to induce hemorrhagic shock, followed by fluid resuscitation with normal saline to a MAP of 70 mmHg until t=75 minutes. Hemodynamics and fluid requirements were continuously monitored.
FIG. 3 contains three plots evidencing the ability of linopirdine to dose-dependently reduce fluid requirements to maintain hemodynamics during resuscitation from induced hemorrhagic shock. At the end of the hemorrhagic shock period (t=30 min), normal saline alone (“vehicle”; n=4), 1 mg/kg (n=5), 3 mg/kg (n=3), or 6 mg/kg (n=3) linopirdine in 0.5 mL normal saline were bolus injected intravenously. Plot “A” represents the mean arterial blood pressure (MAP, mmHg), plot “B” represents the hemorrhage volume in percent of total blood volume, and plot “C” represents the resuscitation fluid requirements to maintain blood pressure at 70 mmHg. Fluid requirements to resuscitate to a MAP of 70 mmHg were: 65±34 mL/kg with normal saline alone and 57±13 mL/kg, 22±8 mL/kg (p<0.05 vs. normal saline alone) and 22±11 mL/kg (p<0.05 vs. normal saline alone) with 1 mg/kg, 3 mg/kg, and 6 mg/kg linopirdine, respectively. The effect of linopirdine to reduce fluid requirements to maintain hemodynamics during resuscitation from hemorrhagic shock appeared to be saturated at a bolus dose of about 3 mg/kg linopirdine. As compared with normal saline-treated animals, a bolus injection of linopirdine (3 mg/kg and 6 mg/kg) reduced fluid resuscitation requirements by 70%. Data are mean±SD. *:p<0.05 vs. normal saline alone. Two-way ANOVA/Bonferroni post-hoc multiple comparison test.
At the end of the hemorrhagic shock period (t=30 min), normal saline alone (“vehicle”; n=3) or 1 mg/kg (n=3) of XE991 in 0.5 mL normal saline were injected intravenously. Plot “A” represents the mean arterial blood pressure (MAP, mmHg), plot “B” represents the hemorrhage volume in percent of total blood volume, and plot “C” represents the resuscitation fluid requirements to maintain blood pressure at 70 mmHg. […] Data are mean±SD. *:p<0.05 vs. normal saline alone. Two-way ANOVA/Bonferroni post-hoc multiple comparison test.

Kv7 channel = details: XE991 vs linopirdine; cited from earlier work
normal rats = assay: Effect of intravenous bolus doses on blood pressure in normal anesthetized rats (sham, no hemorrhage); assay type: in vivo, rat; details: for peak mean arterial blood pressure (MAP): normal rats n=3, baseline MAP 92±2.5 mmHg, mean±SD
Experimental: Initial phases of the investigation entailed the administration of linopirdine to anesthetized male Sprague-Dawley rats to determine its effect on blood pressure. Hemodynamics and fluid requirements were continuously monitored.
FIG. 1 contains a plot representing the effect of linopirdine on blood pressure in normal rats (sham—no hemorrhage, n=3) that received five increasing intravenous (i.v.) bolus doses of linopirdine (0.1-6 mg per kg of body weight) in 0.5 mL normal saline (NS) at fifteen minute intervals. […] Data are mean±SD.
FIG. 2 contains a plot representing the effect of the Kv7 channel activator retigabine on blood pressure when administered to normal rats (sham—no hemorrhage, n=3) by intravenous injection in increasing dosages of 0.1 mg/kg, 0.5 mg/kg, 1 mg/kg, 3 mg/kg, 6 mg/kg, and 12 mg/kg in 0.5 mL normal saline. […] Data are mean±SD.

[2] = tested on: rats hemorrhaged to induce hemorrhagic shock; assay: Fluid resuscitation after hemorrhagic shock, resuscitation fluid (normal saline) supplemented with drug; assay type: in vivo, rat; details: for fluid requirements to resuscitate to a MAP of 70 mmHg: mean±SD
Experimental: Further phases of the investigation entailed the use of anesthetized male Sprague-Dawley rats that were hemorrhaged to a mean arterial blood pressure (MAP) of 25 mmHg for thirty minutes to induce hemorrhagic shock, followed by fluid resuscitation with normal saline to a MAP of 70 mmHg until t=75 minutes. Hemodynamics and fluid requirements were continuously monitored. […] At the end of the hemorrhagic shock period (t=30 min), animals were resuscitated with normal saline alone (“vehicle”; n=4) or normal saline supplemented with 1.25 (n=4), 6.25 (n=3), 12.5 (n=4), or 200 (n=6) […] of linopirdine. Plot “A” represents the mean arterial blood pressure (MAP, mmHg), plot “B” represents the hemorrhage volume in percent of total blood volume, and plot “C” represents the resuscitation fluid requirements to maintain blood pressure at 70 mmHg. Fluid requirements to resuscitate to a MAP of 70 mmHg were: 73±12 mL/kg with NS, 72±24 mL/kg with NS supplemented with 1.25 μg/mL linopirdine and 61±20 mL/kg, 36±9 mL/kg (p<0.05 vs. NS alone) and 31±9 mL/kg (p<0.05 vs. NS alone) with NS supplemented with 6.25 μg/mL, 12.5 μg/mL and 200 μg/mL linopirdine, respectively. […] Data are mean±SD. *:p<0.05 vs. normal saline alone. Two-way ANOVA/Bonferroni post-hoc multiple comparison test.

[3] = rat, in vivo
Experimental: After intravenous injection of 2.5 mg/kg linopirdine, a half-life of 0.6 hours has been determined in rats. Thus, the short half-life would indicate that linopirdine is a drug that is easily controllable if adverse effects were to occur.

[4] = oral administration in humans; cited from earlier work
[5] = intravenous injection of 2.5 mg/kg in rats; cited from earlier work
[6] = phase 1 and phase 2 clinical trials as cognition-enhancing drug in Alzheimer's disease; cited from earlier work

O=C1c2ccccc2C(Cc2ccncc2)(Cc2ccncc2)c2ccccc21 [XE991]
effect on resuscitation fluid requirements relative to linopirdine ([1]; XE991 1 mg/kg i.v. bolus, n=3, compared with linopirdine 3 mg/kg and 6 mg/kg): comparable effect
potency for channel blockade relative to linopirdine (Kv7 channel): five to ten-fold higher potency

O=C1N(c2ccccc2)c2ccccc2C1(Cc1ccncc1)Cc1ccncc1 [linopirdine]
transient increase of mean arterial blood pressure (normal rats; 6 mg/kg i.v. injection, normal rats): approximately 10%
reversal of retigabine-induced hypotension (normal rats; 6 mg/kg linopirdine injected after last (12 mg/kg) dosage of retigabine, normal rats): able to be reversed
time for MAP to return to baseline after bolus (normal rats; 0.1-6 mg/kg i.v. bolus doses, normal rats): ten to fifteen
effect on systemic blood pressures (normal rats; high i.v. bolus dose 6 mg/kg and total i.v. dose 10.6 mg/kg within one hour, normotensive rats): only minimal and short-lived increases
peak mean arterial blood pressure (MAP) (normal rats; linopirdine 0.1 mg/kg i.v. bolus): 92±2 mmHg
peak mean arterial blood pressure (MAP) (normal rats; linopirdine 0.5 mg/kg i.v. bolus): 93±2 mmHg
peak mean arterial blood pressure (MAP) (normal rats; linopirdine 1 mg/kg i.v. bolus): 95±4 mmHg
peak mean arterial blood pressure (MAP) (normal rats; linopirdine 3 mg/kg i.v. bolus): 100±2 mmHg
peak mean arterial blood pressure (MAP) (normal rats; linopirdine 6 mg/kg i.v. bolus): 105±0.6 mmHg
fluid requirements to resuscitate to a MAP of 70 mmHg ([1]; 1 mg/kg i.v. bolus at t=30 min, n=5, normal saline alone 65±34 mL/kg): 57 ± 13 mL/kg
fluid requirements to resuscitate to a MAP of 70 mmHg ([1]; 3 mg/kg i.v. bolus at t=30 min, n=3, p<0.05 vs. normal saline alone (65±34 mL/kg)): 22 ± 8 mL/kg
fluid requirements to resuscitate to a MAP of 70 mmHg ([1]; 6 mg/kg i.v. bolus at t=30 min, n=3, p<0.05 vs. normal saline alone (65±34 mL/kg)): 22 ± 11 mL/kg
reduction of fluid resuscitation requirements compared with normal saline-treated animals ([1]; bolus injection 3 mg/kg and 6 mg/kg): 70%
bolus dose at which the fluid-sparing effect appeared saturated ([1]; i.v. bolus, hemorrhagic shock rats): about 3 mg/kg
reduction of resuscitation fluid requirements at saturating dose ([1]; single dose of three milligrams per kilogram at beginning of fluid resuscitation): 65%
fluid requirements to resuscitate to a MAP of 70 mmHg ([2]; NS supplemented with 1.25 μg/mL linopirdine, n=4, NS alone 73±12 mL/kg): 72 ± 24 mL/kg
fluid requirements to resuscitate to a MAP of 70 mmHg ([2]; NS supplemented with 6.25 μg/mL linopirdine, n=3, NS alone 73±12 mL/kg): 61 ± 20 mL/kg
fluid requirements to resuscitate to a MAP of 70 mmHg ([2]; NS supplemented with 12.5 μg/mL linopirdine, n=4, p<0.05 vs. NS alone (73±12 mL/kg), cumulative dose 0.446 mg/kg): 36 ± 9 mL/kg
fluid requirements to resuscitate to a MAP of 70 mmHg ([2]; NS supplemented with 200 μg/mL linopirdine, n=6, p<0.05 vs. NS alone (73±12 mL/kg)): 31 ± 9 mL/kg
concentration in normal saline at which the effect was saturated ([2]; supplemented resuscitation fluid, hemorrhagic shock rats): 12.5 µg/mL
toxicity associated with treatment [3]: No toxicity
half-life [4]: 24 to 192 min
half-life [5]: 36 min
adverse effects in clinical trials [6]: no relevant adverse effects
